Patent US12605305B2, “Application of citrate metal salt in endodontic treatment, and formulation obtained by preparation” (KUNMING QINGCHENG HEALTHCARE TECH LTD., priority 2020, dated 2026)
“Also recorded” adds a separate entry of the source. Where two headings read alike, the source gives them in different places.

Tests used:
[1] = Compatibility of cationic antibacterial agent with lithium citrate solution; assay type: physicochemical; conditions: for Phenomenon (compatibility with lithium citrate solution): 20% lithium citrate solution mixed 1:1 with 0.2% agent solution, room temperature, dark, 7 days
Protocol: (§1) Materials to be tested: sodium citrate, potassium citrate, lithium citrate, citric acid, EDTA-2Na.
(§2) Each of the citric acid metal salts to be tested was prepared as a 20% aqueous solution; the citric acid to be tested was prepared as a 20% aqueous solution; the EDTA-2Na to be tested was prepared as a 10% aqueous solution; and the cationic antibacterial agent to be tested was prepared as a 0.2% aqueous solution. Each of the prepared aqueous solutions of citrate metal salt (or citric acid aqueous solutions) was mixed with each of the prepared aqueous solutions of cationic antibacterial agent to be tested at a ratio of 1:1.
(§3) All the mixed solutions were stored at room temperature in dark and left standing for 7 days before observation.

[2] = Compatibility of cationic antibacterial agent with potassium citrate solution; assay type: physicochemical; conditions: for Phenomenon (compatibility with potassium citrate solution): 20% potassium citrate solution mixed 1:1 with 0.2% agent solution, room temperature, dark, 7 days
Protocol: as §1, §2, §3

[3] = Compatibility of cationic antibacterial agent with sodium citrate solution; assay type: physicochemical; conditions: for Phenomenon (compatibility with sodium citrate solution): 20% sodium citrate solution mixed 1:1 with 0.2% agent solution, room temperature, dark, 7 days
Protocol: as §1, §2, §3

[4] = Compatibility of cationic antibacterial agent with EDTA-2Na solution; assay type: physicochemical; conditions: 10% EDTA-2Na solution mixed 1:1 with 0.2% agent solution, room temperature, dark, 7 days
Protocol: as §1, §2, §3

[5] = Compatibility of cationic antibacterial agent with citric acid solution; assay type: physicochemical; conditions: 20% citric acid solution mixed 1:1 with 0.2% agent solution, room temperature, dark, 7 days
Protocol: as §1, §2, §3

[6] = Evaluation of the effect of removing smear layer in vitro (SEM of treated root canal specimens)
Source text: Healthy single premolars that need to be extracted for the purpose of clinical orthodontic extraction. Patient age: 14-25 years old. Inclusion criteria: single upright unobstructed root canal, fully developed apical foramen, no near-pulp caries or near-pulp fillings, no history of pulp therapy, no apical root resorption, no root fracture, and other defects, and no periodontal disease.
The soft tissue and calculus around the root of the isolated teeth were removed. The isolated teeth were cleaned and packed for high-temperature and high-pressure steam sterilization. Three sterilized isolated teeth were taken randomly and placed in 10 ml of BHI liquid culture medium, cultured at 37° C. for 24 h, and then taken out. With the naked eye, if the BHI liquid culture medium remains transparent, it is considered that the sterilization effect is reliable. If the BHI liquid culture medium is turbid, it is necessary to re-disinfect all samples and repeat the above steps. After confirmation of successful sterilization, the samples were stored at room temperature for later use.
The pulp chamber of the isolated teeth confirmed to be successfully sterilized was opened using a high-speed hand-piece with an emery ball bit with a diameter of 0.5 mm. After pulp extirpation, the root canal was dredged with an ISO standard #10 stainless steel hand K file, until the file tip that just penetrated the apical foramen was seen. The file was measured for length, from which 0.5 mm was subtracted to establish the working length of the root canal. Then the root canal preparation was performed using a Protaper Universal Engine with Nickel-titanium root canal file to 25/06. […]

[7] = cited from earlier work
[8] = root canal treated for 5 minutes

| Compound | Phenomenon (compatibility with lithium citrate solution) [1] | Phenomenon (compatibility with potassium citrate solution) [2] | Phenomenon (compatibility with sodium citrate solution) [3] | Phenomenon (compatibility with EDTA-2Na solution) [4] | Phenomenon (compatibility with citric acid solution) [5] | effect of removing the smear layer [6, 8] | effect of removing the smear layer ([6]; treatment time as per figures (1, 5 and/or 10 min) or not stated) | compatibility with lithium citrate (conclusion in words) [1] | compatibility with potassium citrate (conclusion in words) [2] | compatibility with sodium citrate (conclusion in words) [3] | pH value ([7]; 5% citric acid solution) | pH value ([7]; 10% citric acid solution) |
| --- | --- | --- | --- | --- | --- | --- | --- | --- | --- | --- | --- | --- |
| polyhexamethyl guanidine hydrochloride | + | + | + | + | + |  |  |  |  |  |  |  |
| polyhexamethylene biguanide hydrochloride | + | + | + | + | + |  |  |  |  |  |  |  |
| CC(=O)O.CC(=O)O.NC(=N\CCCCCC/N=C(N)/N=C(\N)Nc1ccc(Cl)cc1)/N=C(\N)Nc1ccc(Cl)cc1 [chlorhexidine acetate, reference compound] | + | + | + | + | + |  |  |  |  |  |  |  |
| O=P(O)(O)OP(=O)(O)OP(=O)(O)O [sodium tripolyphosphate] |  |  |  |  |  | not helpful for sodium citrate to improve the effect of removing the smear layer | cannot be effective in removing the smear layer; also recorded: very poor effect of removing the smear layer |  |  |  |  |  |
| CCCCCCCCCCCC[N+](C)(C)Cc1ccccc1.[Cl-] [dodecyl dimethyl benzyl ammonium chloride] | − | − | − | − | − |  |  | compatible | compatible | compatible |  |  |
| CCCCCCCCCCCC[N+](C)(C)Cc1ccccc1.[Br-] [dodecyl dimethyl benzyl ammonium bromide] | − | − | − | − | − |  |  | compatible | compatible | compatible |  |  |
| CCCCCCCCCCCC[N+](C)(C)C.[Cl-] [dodecyl trimethyl ammonium chloride] | − | − | − | − | − |  |  | compatible | compatible | compatible |  |  |
| N=C(NCCCCCCNC(=N)NC(=N)Nc1ccc(Cl)cc1)NC(=N)Nc1ccc(Cl)cc1.O=C(O)[C@H](O)[C@@H](O)[C@H](O)[C@H](O)CO.O=C(O)[C@H](O)[C@@H](O)[C@H](O)[C@H](O)CO [chlorhexidine gluconate, reference compound] | + | + | + | + | + |  |  |  |  |  |  |  |
| polydimethyl diallyl ammonium chloride | − | − | − | − | − |  |  | compatible | compatible | compatible |  |  |
| N-cocoyl-L-arginine ethyl ester-DL-pyrrolidone carboxylate | + | + | + | + | + |  |  |  |  |  |  |  |
| CCCCCCCCCCCCCCCC[n+]1ccccc1.[Cl-] [hexadecyl pyridinium chloride, reference compound] | − | − | − | − | − |  |  | compatible | compatible | compatible |  |  |
| O=P([O-])([O-])OP(=O)([O-])[O-].[K+].[K+].[K+].[K+] [potassium pyrophosphate] |  |  |  |  |  | could not improve the effect of the formulation on removing the smear layer |  |  |  |  |  |  |
| O=C(O)CC(O)(CC(=O)O)C(=O)O [citric acid] |  |  |  |  |  |  |  |  |  |  | 1.93 | 1.91 |
